Where a name gives a salt, the structure may show the parent alone. Read-outs that look alike come from different tables or passages of the source. Marks after values point to notes of the source that are not given here.
Key:
GABL = GABL biochallenge test of preserved polymer emulsions (streak plate / RABIT), inoculations passed; format: cell-based, Gluconoacetobacter liquefaciens; conditions: for Inoculations Passed: PVOH-stabilized VAE emulsion, <1000 ppm vinyl acetate
Method: GABL Inoculum Preparation
A recently isolated culture of GABL was grown on potato dextrose agar slants by inoculating the agar surface. The potato dextrose agar slants were incubated for 48-72 hours at 25° C. After this incubation period, GABL cells were harvested using quarter strength Ringers solution to wash the GABL colonies off of the agar surface. The washings from each slant were combined into one sterile, Erlenmeyer flask. The number of slants and the amount of quarter strength Ringers solution used to wash off the GABL colonies was adjusted during the procedure to obtain a final microbial viable count in the range of 10^8-10^10 CFU/mL.
Rapid Automated Bacterial Impedance Technique (RABIT): supplied by Microbiology International, manufactured by Don Whitley Scientific, Ltd.
RABIT utilizes the principal of impedance microbiology to detect and assess microbial activity in a given sample. Using the RABIT, microbial metabolism is monitored by measuring the amount of carbon dioxide produced by actively respiring microorganisms. The electrodes in the RABIT test cells are partially covered with alkaline agar containing potassium hydroxide. As inoculated test samples are monitored on the RABIT, carbon dioxide produced from microbial metabolism is absorbed by the alkaline agar resulting in a change in conductivity. Conductivity is monitored with time and the time to reach a pre-specified rate of reduction in conductivity is termed the time to detection (TTD). Therefore, the shorter the TTD, the higher the number of microorganisms present. Failure can be defined as three successive decreases in conductivity equal to or greater than a pre-specified value (−10 microSiemens is recommended by the manufacturer) at any time during the 72 hour RABIT monitoring period. Alternatively, failure can be defined as a pre-specified total change in conductivity.
Biochallenge Test Procedure
Samples (50 g each) of each test emulsion containing a test antimicrobial agent were inoculated with 1.0 mL of the GABL inoculum. After mixing well, the samples were then placed in a 30° C. incubator. After 1, 2, and 6 days of incubation each sample was streak plated onto potato dextrose agar to assess the level of surviving GABL microorganisms. The potato dextrose agar plates were incubated at 25° C. for 48-72 hours before assessing the growth. On the seventh day of incubation, each test emulsion sample was inoculated again with a freshly prepared GABL inoculum, mixed well, then placed back into the incubator. The samples were again streak plated onto potato dextrose agar after incubating for 1, 2, and 6 days since the second inoculation. On the fourteenth day after the test was initiated, the test emulsions were inoculated a third time with another freshly prepared GABL inoculum and then placed back into the incubator. The samples were again streak plated onto potato dextrose agar after 1, 2, 6, and 13 days of incubation since the third inoculation to assess surviving microorganisms. Test failure is defined as a microbial viable count >300 CFU/10 μL observed from the potato dextrose agar streak plate assessments.
Biochallenge Test Procedure Via the RABIT
A small amount of a microbial nutrient was added to each emulsion test sample (50 g) containing a test antimicrobial agent. The resulting samples were then inoculated with 1.0 mL of the GABL inoculum. After mixing well, an aliquot (5 g) of each test sample was placed into separate RABIT indirect conductivity tubes. The indirect conductivity tubes were then placed into the RABIT incubator modules set at 30° C. and the conductivity changes monitored for up to 72 hours. The remainder of each test sample was stored in a 30° C. incubator during the RABIT monitoring period. At the completion of the RABIT monitoring period, the aliquot samples were placed back into their respective sample containers. Each test sample was then re-inoculated with a freshly prepared GABL inoculum. […]

mixed bacterial pool = format: cell-based; conditions: PVOH-stabilized VAE emulsion Tg 0, <1000 ppm vinyl acetate
Method: The preservative efficacy of several cationic compounds in a poly(vinyl alcohol)-stabilized VAE copolymer emulsion (Tg=0) containing less than 1000 ppm vinyl acetate was assessed according to the following procedure:
Aeromonas hydrophilia, Alcaligenes faecalis, Corynebacterium ammoniagenes, Enterobacter aerogenes, Escherichia coli, Klebsiella pneumoniae, Pseudomonas aeruginosa, Proteus vulgaris, Providencia rettgeri, Pseudomonas stutzeri, Shewanella putrefaciens, Serratia liquefaciens, Acinetobacter baumannii, Burkholderia cepacia, Chryseobacterium meningosepticum, Sphingobacterium spiritivorum, Ralstonia pickettii, and GABL.
Mixed Bacterial Pool Inoculum Preparation
Each bacterial culture was individually grown on nutrient agar slants, except GABL was grown on potato dextrose agar slants, by inoculating the agar surfaces. The nutrient agar slants were incubated for 24-48 hours at 30° C. and the potato dextrose agar slants were incubated for 48-72 hours at 25° C. After this incubation period, the cells were harvested using quarter strength Ringers solution to wash the bacterial colonies off the agar surface. The washings from all of the slants were combined into one sterile, Erlenmeyer flask. The number of slants and the amount of Ringers Solution used to wash off the bacterial colonies is adjusted during the procedure to obtain a final mixed microbial viable count in the range of 10^8-10^10 CFU/mL.
Bacterial Biochallenge Test Procedure
The RABIT procedures were followed as described in Example 1, except the mixed bacterial pool inoculum was used to inoculate the test samples instead of the GABL inoculum.

For `CCCCCCCCCCCCNC(=N)N` [DGH, n-dodecylguanidine hydrochloride], the “# of GABL Inoculations Passed” value (GABL; DGH 100 ppm, emulsion VA/E, Tg 0 °C, H2O2/SFS, PVOH (first such line of Table 2)) was 3, the “# of GABL Inoculations Passed” value (GABL; DGH 100 ppm, emulsion VA/E, Tg 0 °C, H2O2/SFS, PVOH (second such line of Table 2)) was 2 and the “# of GABL Inoculations Passed” value (GABL; DGH 100 ppm, emulsion VA/E, Tg 0 °C, H2O2/SFS, PVOH/nonionic surfactant) was 1. The “# of GABL Inoculations Passed” value (GABL; DGH 100 ppm, emulsion VA/E, Tg 4 °C, KPS/SFS, Nonionic surfactant/HEC) was 0, the “# of GABL Inoculations Passed” value (GABL; DGH 100 ppm, emulsion VA/E, Tg 14 °C, H2O2/SFS, PVOH) was 5 and the “# of GABL Inoculations Passed” value (GABL; DGH 100 ppm, emulsion VA/E, Tg 20 °C, H2O2/SFS, PVOH, stopped after 4th inoculation) was “≧4^b”. The “# of GABL Inoculations Passed” value (GABL; DGH 100 ppm, emulsion VA/E, Tg −5 °C, H2O2/SFS, PVOH/nonionic surfactant) was 1, the “# of GABL Inoculations Passed” value (GABL; DGH 100 ppm, emulsion VA/E, Tg −15 °C, H2O2/SFS, PVOH) was 2 and the “# of GABL Inoculations Passed” value (GABL; DGH 100 ppm, emulsion VA/E/MA/SVS, Tg 5 °C, KPS/SFS, Nonionic surfactant) was 0. The “# of GABL Inoculations Passed” value (GABL; DGH 150 ppm, emulsion VA/E, Tg 0 °C, H2O2/SFS, PVOH (first such line of Table 2)) was 4, the “# of GABL Inoculations Passed” value (GABL; DGH 150 ppm, emulsion VA/E, Tg 0 °C, H2O2/SFS, PVOH/nonionic surfactant) was 2 and the “# of GABL Inoculations Passed” value (GABL; DGH 150 ppm, emulsion VA/E, Tg 4 °C, KPS/SFS, Nonionic surfactant/HEC) was 0. The “# of GABL Inoculations Passed” value (GABL; DGH 150 ppm, emulsion VA/E, Tg 14 °C, H2O2/SFS, PVOH, stopped after 7th inoculation) was “≧7^a”, the “# of GABL Inoculations Passed” value (GABL; DGH 150 ppm, emulsion VA/E, Tg 20 °C, H2O2/SFS, PVOH, stopped after 4th inoculation) was “≧4^b” and the “# of GABL Inoculations Passed” value (GABL; DGH 150 ppm, emulsion VA/E, Tg −5 °C, H2O2/SFS, PVOH/nonionic surfactant) was 3. For the same compound, the “# of GABL Inoculations Passed” value (GABL; DGH 150 ppm, emulsion VA/E, Tg −15 °C, H2O2/SFS, PVOH) was 5, the “# of GABL Inoculations Passed” value (GABL; DGH 150 ppm, emulsion VA/E/MA/SVS, Tg 5 °C, KPS/SFS, Nonionic surfactant) was 0 and the “# of GABL Inoculations Passed” value (GABL; DGH 200 ppm, emulsion VA/E, Tg 0 °C, H2O2/SFS, PVOH (first such line of Table 2), stopped after 7th inoculation) was “≧7^a”. The “# of GABL Inoculations Passed” value (GABL; DGH 200 ppm, emulsion VA/E, Tg 0 °C, H2O2/SFS, PVOH (second such line of Table 2)) was 7, the “# of GABL Inoculations Passed” value (GABL; DGH 200 ppm, emulsion VA/E, Tg 0 °C, H2O2/SFS, PVOH/nonionic surfactant) was 2 and the “# of GABL Inoculations Passed” value (GABL; DGH 200 ppm, emulsion VA/E, Tg 4 °C, KPS/SFS, Nonionic surfactant/HEC) was 0. For the same compound, the “# of GABL Inoculations Passed” value (GABL; DGH 200 ppm, emulsion VA/E, Tg 8 °C, KPS/SFS, PVOH) was 2, the “# of GABL Inoculations Passed” value (GABL; DGH 200 ppm, emulsion VA/E, Tg 14 °C, H2O2/SFS, PVOH, stopped after 7th inoculation) was “≧7^a” and the “# of GABL Inoculations Passed” value (GABL; DGH 200 ppm, emulsion VA/E, Tg 20 °C, H2O2/SFS, PVOH, stopped after 4th inoculation) was “≧4^b”. The “# of GABL Inoculations Passed” value (GABL; DGH 200 ppm, emulsion VA/E, Tg −5 °C, H2O2/SFS, PVOH/nonionic surfactant) was 3, the “# of GABL Inoculations Passed” value (GABL; DGH 200 ppm, emulsion VA/E, Tg −15 °C, H2O2/SFS, PVOH, stopped after 7th inoculation) was “≧7^a” and the “# of GABL Inoculations Passed” value (GABL; DGH 200 ppm, emulsion VA/E/AA, Tg 0 °C, H2O2/SFS, PVOH/nonionic surfactant) was 0. For the same compound, the “# of GABL Inoculations Passed” value (GABL; DGH 200 ppm, emulsion VA/E/MA/SVS, Tg 5 °C, KPS/SFS, Nonionic surfactant) was 0, the “# of GABL Inoculations Passed” value (GABL; DGH 200 ppm, emulsion VA/E/SVS/NMA, Tg 10 °C, TBHP/sodium erythorbate, Anionic sulfate surfactant) was 0 and the “Inoculations Passed” value (GABL; Tg 0 °C, biocide dosage 50 ppm active) was 1. The “Inoculations Passed” value (GABL; Tg 0 °C, biocide dosage 100 ppm active) was 2, the “Inoculations Passed” value (GABL; Tg 0 °C, biocide dosage 200 ppm active) was 7 and the “Inoculations Passed” value (mixed bacterial pool; active biocide dosage 100 ppm) was 2. The “Inoculations Passed” value (mixed bacterial pool; active biocide dosage 200 ppm) was 7.
